# Source: PMC9353555, “Hemoclot Thrombin Inhibitor Assay and Expected Peak-Trough Levels of Dabigatran: A Multicenter Study” (Frontiers in Cardiovascular Medicine, 2022)
# Where two headings read alike, the source gives them in different places.
# How the values were obtained:
# [1] = Plasma dabigatran concentration and pharmacokinetics by HPLC-MS/MS; assay type: in vivo, human; settings: healthy subjects, single dose 150 mg; for AUC(0-t): 150 mg
# Method: The venous blood samples were collected 0 h and post-dose at 16–19 time points in 3.0 ml EDTA-K2 tubes and centrifuged at 4°C for 10 min at 3,000 g. The plasma samples were stored at –80°C until analysis.
# The total anti-thrombin effect from dabigatran etexilate is a result of dabigatran (alone) and dabigatran acylglucuronides. An assay for total dabigatran (the sum of free dabigatran and the contribution from dabigatran acylglucuronides) in plasma is developed, validated and applied ([21], [22]). Thus, dabigatran concentrations were determined by validated HPLC-MS/MS assays at Shimadzu 30 series, API 6500 (Applied Biosystems, Inc., American). The standard calibration curves with good linearity were built for dabigatran within the concentration range of 1.0–300.0 ng/mL, and the lower limit of quantitation (LOQ) was 1.0 ng/mL. The precision (% CV), intra-batch accuracy and inter-batch accuracy were within 6.2–9.2, 90.3–104.3, and 94.6–103.8%, respectively. PK parameters were analyzed by non-compartmental methods using Phoenix Win-Non-lin 7.0 (A Certara™ Company, Princeton, NJ, United States). Cmax (Maximum concentration) and Tmax (the time to Cmax) were obtained from the observed data, while terminal half-life (t1/2), plasma concentration vs. time from 0 to the last measurable time point (AUC0–t) were calculated.
# (§1) For detecting pharmacodynamics (PD) parameters, the sampling times were 0, 2, 8, 12 h after dabigatran administration respectively. In patients’ population, plasma sample obtained longer than 10 h after the previous dose was considered for trough concentration; average 2.0 h (range: 1.0–3.0 h) post dose was considered for peak concentration. The reference detection range refers to plasma dabigatran concentrations between the 2.5th and 97.5th percentiles of all values determined by HPLC-MS/MS.
# [2] = Hemoclot thrombin inhibitor (HTI) assay of plasma dabigatran concentration; assay type: in vivo, human; settings: for HTI-peak: peak (1.0–3.0 h post dose); for HTI-trough: trough (>10 h after previous dose)
# Method: as §1
# (§2) Blood samples were collected via 2.7 ml sodium citrate tubes, then centrifuged for 15 min at 2,500 g at room-temperature. The plasma samples were stored at –70°C within 6 months until analysis.
# (§3) Pharmacodynamic assessment was performed at a centralized facility in Peking University First Hospital. The HTI, PT, and APTT were measured on Sysmex CS-2100i (Sysmex, Kobe, Japan). PT and APTT were tested using Coagulation Method Assay Kits (Thromborel-S® and Actin®, Marburg, Germany). The normal reference range for the PT and APTT assays used in this study are 10.1–12.6 s for PT and 26.9–37.6 s for APTT. Concentration detection is divided into two standard curves, one is suitable for normal and slightly high concentration range, another one is suitable for low concentration range. When the concentration is below 120 ng/ml, the low concentration standard curve is switched to obtain a more accurate concentration value. […] PD assessment was all performed in our hospital.
# [3] = system: APTT; experiment: Activated partial thromboplastin (APTT) coagulation assay after dabigatran; assay type: in vivo, human; settings: for APTT-peak / APTT-0 h / APTT-trough: NVAF patients, 110 mg bid, target range 26.9–37.6 s; for APTT-peak: peak (1.0–3.0 h post dose); for APTT-0 h: pre-dose; for APTT-trough: trough (>10 h after previous dose)
# Method: as §1, §2, §3
# [4] = system: PT; experiment: Prothrombin time (PT) coagulation assay after dabigatran; assay type: in vivo, human; settings: for PT-peak / PT-0 h / PT-trough: NVAF patients, 110 mg bid, target range 10.1–12.6 s; for PT-peak: peak (1.0–3.0 h post dose); for PT-0 h: pre-dose; for PT-trough: trough (>10 h after previous dose)
# Method: as §1, §2, §3
# [5] = design: method as in PMID 23718677; settings: dabigatran 150 mg, American population; cited from earlier work
# [6] = 183 patients, 110 mg bid, HTI assay, about 500 blood samples
# [7] = NVAF patients, 110 mg bid, HTI-derived concentration
# [8] = NVAF patients, 110 mg bid, HTI-derived concentration, listed as dabigatran
structure (smiles),measurement,setting,value
[H]/N=C(/N)c1ccc(NCc2nc3cc(C(=O)N(CCC(=O)O)c4ccccn4)ccc3n2C)cc1 [Dabigatran],C–2 h,"[1]; 2 h, HPLC-MS/MS, mean ± SD",85.51 ± 73.77 ng/mL
same,C–8 h,"[1]; 8 h, HPLC-MS/MS, mean ± SD",57.60 ± 23.46 ng/mL
same,C–12 h,"[1]; 12 h, HPLC-MS/MS, mean ± SD",36.40 ± 3.15 ng/mL
same,Cmax,[1]; mean ± SD,139.99 ± 55.61 ng/mL
same,reference detection range,[1]; 2.5th to 97.5th percentiles of plasma concentrations by HPLC-MS/MS,33 to 159 ng/mL
same,AUC(0-t),"[1]; human, plasma, oral, mean ± SD, read-out: AUC0–12",1290 ± 442 ng·h/mL
same,AUC(0-t),"[1]; human, plasma, oral, mean ± SD, read-out: AUC0–t",1250 ± 442 ng·h/mL
same,concentration at 0 h,"[1]; human, plasma, oral, 0 h (pre-dose), HPLC-MS/MS, mean ± SD, read-out: C–0 h",0 ng/mL
same,concentration at 2 h,"[1]; human, plasma, oral, 2 h, HPLC-MS/MS, mean ± SD, read-out: C–2 h",85.5 ng/mL
same,concentration at 8 h,"[1]; human, plasma, oral, 8 h, HPLC-MS/MS, mean ± SD, read-out: C–8 h",57.6 ng/mL
same,concentration at 12 h,"[1]; human, plasma, oral, 12 h, HPLC-MS/MS, mean ± SD, read-out: C–12 h",36.4 ng/mL
same,Tmax,"[1]; human, plasma, oral, mean ± SD",3.61 ± 2.09 h
same,half-life,"[1]; human, plasma, oral, mean ± SD",8.78 ± 1.33 h
same,expected peak levels range,[2]; [6],95 to 196 ng/mL
same,expected trough levels range,[2]; [6],36 to 92 ng/mL
same,HTI-peak,[2]; [7],145.57 ± 50.16 ng/mL
same,HTI-peak,[2]; [8],145.57 ng/mL
same,HTI-0 h,"[2]; NVAF patients, 110 mg bid, pre-dose, HTI-derived concentration",4.06 ± 2.92 ng/mL
same,HTI-trough,[2]; [7],63.74 ± 27.95 ng/mL
same,HTI-trough,[2]; [8],63.74 ng/mL
same,HTI–2 h,"[2]; healthy subjects, single dose 150 mg, 2 h, HTI-derived concentration",88.89 ± 79.08 ng/mL
same,HTI–8 h,"[2]; healthy subjects, single dose 150 mg, 8 h, HTI-derived concentration",61.91 ± 27.46 ng/mL
same,HTI–12 h,"[2]; healthy subjects, single dose 150 mg, 12 h, HTI-derived concentration",40.00 ± 16.63 ng/mL
same,concentration at 0 h,"[2]; human, plasma, oral, NVAF patients, 110 mg bid, pre-dose, HTI-derived concentration",4.06 ng/mL
same,concentration at 0 h,"[2]; human, plasma, oral, healthy subjects, single dose 150 mg, 0 h (pre-dose), HTI-derived concentration",2.99 ± 2.37 ng/mL
same,concentration at 2 h,"[2]; human, plasma, oral, healthy subjects, single dose 150 mg, 2 h, HTI-derived concentration",88.9 ng/mL
same,concentration at 8 h,"[2]; human, plasma, oral, healthy subjects, single dose 150 mg, 8 h, HTI-derived concentration",61.9 ng/mL
same,concentration at 12 h,"[2]; human, plasma, oral, healthy subjects, single dose 150 mg, 12 h, HTI-derived concentration",40 ng/mL
same,APTT-peak,[3],47.89 ± 4.43 s
same,APTT-peak,[3]; listed as dabigatran,47.89 s
same,APTT-0 h,[3],36.47 ± 8.40 s
same,APTT-0 h,[3]; listed as dabigatran,36.47 s
same,APTT-trough,[3],39.08 ± 9.74 s
same,APTT-trough,[3]; listed as dabigatran,39.08 s
same,APTT–0 h,"[3]; healthy subjects, single dose 150 mg, 0 h (pre-dose), reference range 26.9–37.6 s",27.78 ± 3.50 s
same,APTT–2 h,"[3]; healthy subjects, single dose 150 mg, 2 h, reference range 26.9–37.6 s",39.69 ± 10.69 s
same,APTT–8 h,"[3]; healthy subjects, single dose 150 mg, 8 h, reference range 26.9–37.6 s",38.52 ± 6.00 s
same,APTT–12 h,"[3]; healthy subjects, single dose 150 mg, 12 h, reference range 26.9–37.6 s",35.22 ± 5.37 s
same,PT-peak,[4],14.04 ± 3.50 s
same,PT-peak,[4]; listed as dabigatran,14.04 s
same,PT-0 h,[4],15.58 ± 5.90 s
same,PT-0 h,[4]; listed as dabigatran,15.58 s
same,PT-trough,[4],13.79 ± 6.15 s
same,PT-trough,[4]; listed as dabigatran,13.79 s
same,PT–0 h,"[4]; healthy subjects, single dose 150 mg, 0 h (pre-dose), reference range 10.1–12.6 s",11.74 ± 1.88 s
same,PT–2 h,"[4]; healthy subjects, single dose 150 mg, 2 h, reference range 10.1–12.6 s",12.83 ± 1.58 s
same,PT–8 h,"[4]; healthy subjects, single dose 150 mg, 8 h, reference range 10.1–12.6 s",12.44 ± 1.31 s
same,PT–12 h,"[4]; healthy subjects, single dose 150 mg, 12 h, reference range 10.1–12.6 s",11.97 ± 0.92 s
same,reference detection range,[5],27 to 411 ng/mL
